Drawing on PubChem BioAssay (NCI), this text covers GI50 and TGI for ten molecules.

Among the test systems are HL-60(TB) leukemia; KM12 colon; OVCAR-3 ovarian; RXF 393 renal; SF-539 CNS; SK-MEL-28 melanoma; TK-10 renal; HCC-2998 colon; K-562 leukemia.
What all share (assay): NCI-60 cell line screen, 48 h

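Step 1: Grow cells in 96-well plates. Step 2: Expose to compound for 48 hours at 5 concentrations. Step 3: Interpolate endpoints linearly; if unreached, use highest concentration. Abbreviation: GI50, concentration required for 50% inhibition of growth. TGI is the concentration that stops growth completely.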

Regarding `COc1ccc(Cn2c(Cl)c(/C=C3/C(=O)Nc4ccccc43)c3cc(OC)c(C)cc32)cc1`, the GI50 with HL-60(TB) leukemia was 4.05 µM; with KM12 colon, 3.99 µM; with OVCAR-3 ovarian, 2.3 µM; with RXF 393 renal it was 4.06 µM; with SF-539 CNS, 4.15 µM; in the test on SK-MEL-28 melanoma, 4.03 µM. In the test on TK-10 renal, the GI50 is 13.3 µM. Moreover, the TGI with HL-60(TB) leukemia was greater than 100 µM; with KM12 colon, 23.8 µM; in the test on OVCAR-3 ovarian it was 5.37 µM; in the test with RXF 393 renal it was greater than 100 µM; in the test with SF-539 CNS it was greater than 100 µM; in the test with SK-MEL-28 melanoma it was greater than 100 µM. In addition, in the test with TK-10 renal, the TGI is greater than 100 µM.

As to `O=c1ccc(=O)c2c(=O)c3ccccc3c(=O)c1=2`, the TGI in the test with HCC-2998 colon was greater than 100 µM; in the test on HL-60(TB) leukemia it was 70.9 µM; with K-562 leukemia, greater than 100 µM; in the test with KM12 colon it was greater than 100 µM; in the test on OVCAR-3 ovarian, 55.2 µM; with RXF 393 renal, greater than 100 µM. Besides, the TGI with SF-539 CNS was 70.9 µM; in the test on SK-MEL-28 melanoma, greater than 100 µM; in the test on TK-10 renal, greater than 100 µM.

Regarding `O=C1C2Cc3ccccc3CN2C(=O)N1CCN1CCCC1` (configuration not stated), the TGI with HCC-2998 colon, in the test with HL-60(TB) leukemia, with K-562 leukemia, in the test with KM12 colon, in the test on OVCAR-3 ovarian and in the test on SF-539 CNS was greater than 100 µM each time. Besides, the TGI in the test on SK-MEL-28 melanoma and with TK-10 renal was greater than 100 µM each time.

For `CCC(c1cccc(O)c1)C(CC)c1cccc(O)c1` (configuration not stated), the GI50 is 5.18 µM in the test on HCC-2998 colon; 3.03 µM in the test with KM12 colon; 6.2 µM in the test with OVCAR-3 ovarian; 2.75 µM with RXF 393 renal; 1.23 µM with SF-539 CNS; 4.9 µM with SK-MEL-28 melanoma. In addition, in the test with TK-10 renal, the GI50 is 2.93 µM. Moreover, the TGI was 18.3 µM in the test with HCC-2998 colon; 13.6 µM with KM12 colon; 19 µM with OVCAR-3 ovarian; 10.6 µM in the test on RXF 393 renal; 4.72 µM in the test on SF-539 CNS; 18.2 µM in the test with SK-MEL-28 melanoma. In addition, in the test with TK-10 renal, the TGI is 20.4 µM.

In the case of `O=[N+]([O-])c1ccc2c(c1)[O][Sn]([I])([I])[O]2`, the GI50 in the test on HCC-2998 colon was greater than 100 µM; in the test with HL-60(TB) leukemia it was greater than 100 µM; in the test with K-562 leukemia, greater than 100 µM; in the test on KM12 colon it was greater than 100 µM; in the test on OVCAR-3 ovarian it was greater than 100 µM; in the test on RXF 393 renal it was 52.1 µM. Further, the values for the GI50 with SF-539 CNS, in the test on SK-MEL-28 melanoma and with TK-10 renal were greater than 100 µM, 69.6 µM and greater than 100 µM, respectively. The TGI in the test on HCC-2998 colon, in the test on HL-60(TB) leukemia, in the test with K-562 leukemia, in the test with KM12 colon, in the test on OVCAR-3 ovarian and in the test with RXF 393 renal was greater than 100 µM in each case. Moreover, the TGI with SF-539 CNS, with SK-MEL-28 melanoma and in the test on TK-10 renal was greater than 100 µM throughout.

Turning to `O=c1[nH]c(=O)n(C2OC3COC2C3O)cc1F` (configuration not stated), the TGI in the test with HCC-2998 colon, in the test on HL-60(TB) leukemia, with K-562 leukemia, in the test with KM12 colon, in the test with OVCAR-3 ovarian and with RXF 393 renal was greater than 100 µM in each case. Besides, the TGI in the test on SK-MEL-28 melanoma and in the test on TK-10 renal was greater than 100 µM each time.

Turning to `COC(=O)C1=C(CS(=O)c2ccccc2[N+](=O)[O-])ON(C)C1c1ccccc1` (configuration not stated), the TGI in the test with HCC-2998 colon was 82.9 µM; with HL-60(TB) leukemia, 38.6 µM; with K-562 leukemia, 78 µM; with KM12 colon it was greater than 100 µM; in the test with OVCAR-3 ovarian, greater than 100 µM; with RXF 393 renal, 71.1 µM. Also, the TGI in the test on SF-539 CNS was 56.2 µM; in the test on TK-10 renal, greater than 100 µM.

Turning to `Cc1c2cc[n+](C)cc2c(C)c2c1[nH]c1ccc(O)c(OCC(F)(F)F)c12`, the TGI with HCC-2998 colon was 46.4 µM; in the test with HL-60(TB) leukemia, 13 µM; in the test with K-562 leukemia, 17 µM; in the test on OVCAR-3 ovarian it was 7.4 µM; with SF-539 CNS, 9.72 µM; in the test with SK-MEL-28 melanoma, 16 µM. This molecule also returned a TGI with TK-10 renal of 29.1 µM.

For the molecule `C1=CC=C2NCCOCCNC3=CC=CC=CC3=NCCOCCN=C2C=C1`, the TGI in the test with HCC-2998 colon was greater than 100 µM; with HL-60(TB) leukemia, 70.5 µM; with K-562 leukemia, greater than 100 µM; in the test with KM12 colon, greater than 100 µM; in the test with OVCAR-3 ovarian it was greater than 100 µM; in the test with SK-MEL-28 melanoma it was greater than 100 µM. The same molecule returned a TGI in the test with TK-10 renal greater than 100 µM.

For the molecule `C[C-](O)O.O/C(=C\[C-](O)c1ccccc1)c1ccccc1.O/C(=C\[C-](O)c1ccccc1)c1ccccc1.[Nd+3]` (configuration not stated), the GI50 in the test with HCC-2998 colon was 2.17 µM; in the test on HL-60(TB) leukemia it was 2.03 µM; in the test with K-562 leukemia, 3.78 µM; with OVCAR-3 ovarian, 0.363 µM; with SF-539 CNS, 5.5 µM; in the test with SK-MEL-28 melanoma it was 12.7 µM. Moreover, the GI50 with TK-10 renal is 20.9 µM. In addition, the TGI was 20.2 µM in the test on HCC-2998 colon; 8.7 µM with HL-60(TB) leukemia; 16.4 µM in the test with K-562 leukemia; 27.4 µM with OVCAR-3 ovarian; 25.5 µM in the test on SF-539 CNS; 44.5 µM in the test with SK-MEL-28 melanoma. In the test on TK-10 renal, this molecule came in with a TGI of 94.2 µM.
